Tests used:
[1] = test system: C2C12 cells; test: Effect of Lat-B on cytoskeleton reorganization / morphology of C2C12 cells (brightfield microscopy); type: cell-based
Description: (§1) Difference in cytoskeleton reorganization of differentiated cells vs. undifferentiated ones was studied by treating cells with Latrunculin-B (Lat-B) (Abcam, ab144291). C2C12 cells grown in GM and the partially differentiated ones in DM were treated with 100 nM Lat-B in GM and DM, respectively, for 1 hr at D1 and microscopy was performed using inverted microscope in brightfield mode. Effect of cytoskeleton reorganization on detachment of the sheets was also studied by treating the cells with 50 and 100 nM of Lat-B in DM during the 24 hrs before delamination. Lat-B stock solution was prepared by dissolving 100 μg in 1 mL DMSO.

[2] = test system: C2C12 cells; test: Effect of Lat-B treatment during the 24 hrs before delamination on detachment / sheet formation; type: cell-based
Description: In order to start the delamination process DM was replaced with acidic medium (medium A) (DM with 0.1% V/V acetic acid, final pH of ˜6) and samples were incubated for 5-10 min at 37° C. At this point that sheets started to delaminate the process was accelerated by gentle shaking of the well plate. Process could be accelerated by applying shear force using gentle pipetting of medium to the edges of the wells. Immediately after delamination was completed, medium A was replaced with basic medium (medium B, final pH of ˜8) (DM with 0.1% V/V 0.1 M sodium hydroxide in deionized water) in order to prevent samples from forming clumps. After 5 min of treatment with medium B, samples were transferred to neutral medium (medium N, pH of 7.4) (DM without any pH adjustment). In case of stacks, the required number of sheets, either 2 layers of cell sheets (double-layer constructs) or 4 layers (quadruple-layer constructs), were stacked on top of each other by simply dragging them using a tweezer and placing them on each other. This process was also performed in abundant amounts of medium B and after stacking was done, most of the media was aspirated to let the sheets settle down because of their weight for 5 more minutes and then extra medium N was added (FIG. 1B). Images of sheets were taken 1 hr after delamination/stacking and 24 hrs later using a stereomicroscope (Infinity Optical Systems). Diameter of the sheets was used using ImageJ at these time points to study effect of number of layers on shrinkage pattern of the constructs.
as §1

[3] = test system: C2C12 cells; details: 100 nM in DM, Nowak et al. 2009; cited from earlier work

C/C1=C/C(=O)O[C@@H]2C[C@@H](CC[C@H](C)/C=C\CC1)O[C@@](O)([C@@H]1CSC(=O)N1)C2 [Lat-B, Latrunculin-B]
Morphology after 24 hr of treatment ([1]; 50 nM Lat-B in DM, 24 hr (D1 to D2)): slightly round | Morphology during the first few hours ([1]; 50 nM Lat-B in DM, first few hours (data not shown)): did not show significant changes in their morphology | Morphology of partially differentiated cells ([1]; 100 nM Lat-B in DM, 1 hr at D1, partially differentiated C2C12): changed very fast to round cells and eventually they formed clumps of cells | Morphology after 24 hrs of treatment ([1]; 100 nM Lat-B in DM, 24 hrs (D1 to D2)): regained their stretched morphology after 24 hrs of treatment but were still rounder compared to untreated cells | Morphology of undifferentiated cells ([1]; 100 nM Lat-B in GM, 1 hr at D1, undifferentiated C2C12): only became slightly round | Delamination / sheet formation ([2]; 50 nM Lat-B in DM for 24 hrs before delamination): started to delaminate, but the sheets were fragile and broke to smaller pieces | Delamination / sheet formation ([2]; 50 nM Lat-B in DM for 24 hrs before delamination, listed as Latrunculin-B): delaminated but were fragile | Delamination / sheet formation ([2]; 100 nM Lat-B in DM for 24 hrs before delamination): did not form sheets at all | Delamination / sheet formation ([2]; 100 nM Lat-B in DM for 24 hrs before delamination, listed as Latrunculin-B): did not form continuous sheets | Fusion of C2C12 cells [3]: would not fuse to each other

— patent US20230272345A1, “SELF-ASSEMBLED CELL SHEET CONSTRUCTS AND METHODS OF MAKING THEREOF” (Caro Meats Inc., priority 2020, published 2023)
